Source: patent publication US6982348B2, “Aminoethanol derivatives” (Takeda Pharmaceutical Company Limited, priority 2001, dated 2006)

`O=C(N[C@H](Cc1ccc(C(F)(F)F)cc1)[C@@H](O)c1ccc(F)cc1)c1cc([N+](=O)[O-])cc2c1CCCC2` (racemic) [Example 111, N-[(1RS,2SR)-2-(4-fluorophenyl)-2-hydroxy-1-[4-(trifluoromethyl)benzyl]ethyl]-3-nitro-5,6,7,8-tetrahydronaphthalene-1-carboxamide] showed a melting point of 216 to 217 °C. Work on `CC(C)(C)C(Cc1ccccc1)C(=O)N[C@H](Cc1ccc(C(F)(F)F)cc1)[C@@H](O)c1ccc(F)cc1` (mixture of isomers) [Example 112, 2-benzyl-N-[(1RS,2SR)-2-(4-fluorophenyl)-2-hydroxy-1-[4-(trifluoromethyl)benzyl]ethyl]-3,3-dimethylbutyramide] yielded a melting point of 175 to 176 °C. With `O=C(N[C@H](Cc1ccc(C(F)(F)F)cc1)[C@@H](O)c1ccc(F)cc1)c1cccc2c1OCCCO2` (racemic) [Example 113, N-[(1RS,2SR)-2-(4-fluorophenyl)-2-hydroxy-1-[4-(trifluoromethyl)benzyl]ethyl]-3,4-dihydro-2H-1,5-benzodioxepine-6-carboxamide] the melting point was 155 to 156 °C. Compound `O=C(N[C@H](Cc1ccc(C(F)(F)F)cc1)[C@@H](O)c1ccc(F)cc1)OCc1ccccc1` (racemic) [Example 114, benzyl N-[(1RS,2SR)-2-(4-fluorophenyl)-2-hydroxy-1-[4-(trifluoromethyl)benzyl]ethyl]carbamate] has a melting point of 151 to 152 °C. Compound `CCOC(=O)N[C@H](Cc1ccc(C(F)(F)F)cc1)[C@@H](O)c1ccc(F)cc1` (racemic) [Example 115, ethyl N-[(1RS,2SR)-2-(4-fluorophenyl)-2-hydroxy-1-[4-(trifluoromethyl)benzyl]ethyl]carbamate] has a melting point of 143 to 144 °C. Compound `CC(C)(C)COC(=O)N[C@H](Cc1ccc(C(F)(F)F)cc1)[C@@H](O)c1ccc(F)cc1` (racemic) [Example 116, neopentyl N-[(1RS,2SR)-2-(4-fluorophenyl)-2-hydroxy-1-[4-(trifluoromethyl)benzyl]ethyl]carbamate] has a melting point of 112 to 113 °C. For `O=S(=O)(N[C@H](Cc1ccc(C(F)(F)F)cc1)[C@@H](O)c1ccc(F)cc1)c1cccc2ccccc12` (racemic) [Example 117, N-((1RS,2SR)-2-(4-fluorophenyl)-2-hydroxy-1-((4-(trifluoromethyl)phenyl)methyl)ethyl)-1-naphthalenesulfonamide], the melting point was 176 to 177 °C. With `O=C(Nc1cccc2ccccc12)N[C@H](Cc1ccc(C(F)(F)F)cc1)[C@@H](O)c1ccc(F)cc1` (racemic) [Example 118, N-((1RS,2SR)-2-(4-fluorophenyl)-2-hydroxy-1-((4-(trifluoromethyl)phenyl)methyl)ethyl)-N′-(1-naphthalenyl)urea] the melting point was 222 to 223 °C. For `O=C(Nc1ccc(C(F)(F)F)cc1)N[C@H](Cc1ccc(C(F)(F)F)cc1)[C@@H](O)c1ccc(F)cc1` (racemic) [Example 119, N-((1RS,2SR)-2-(4-fluorophenyl)-2-hydroxy-1-((4-(trifluoromethyl)phenyl)methyl)ethyl)-N′-(4-(trifluoromethyl)phenyl)urea], the melting point was 160 to 161 °C. `CN(C(=O)c1cccc2ccccc12)[C@H](Cc1ccc(C(F)(F)F)cc1)[C@@H](O)c1ccc(F)cc1` (racemic) [Example 121, N-((1RS,2SR)-2-(4-fluorophenyl)-2-hydroxy-1-((4-(trifluoromethyl)phenyl)methyl)ethyl)-N-methyl-1-naphthalenecarboxamide] gave a melting point of 196 to 197 °C. In the case of `CC1=Cc2c(cccc2C(=O)N[C@H](Cc2cccc(OC(F)(F)C(F)F)c2)[C@@H](O)c2ccc(F)cc2)CCC1` (racemic) [Example 127, N-[(1RS,2SR)-2-(4-fluorophenyl)-2-hydroxy-1-[3-(1,1,2,2-tetrafluoroethoxy)benzyl]ethyl]-8-methyl-6,7-dihydro-5H-benzo[a]cycloheptene-1-carboxamide], the melting point was 149 to 150 °C. In the case of `O=C(N[C@H](Cc1cccc(OC(F)(F)C(F)F)c1)[C@@H](O)c1ccc(F)cc1)c1cccc2c1OCCCO2` (racemic) [Example 128, N-[(1RS,2SR)-2-(4-fluorophenyl)-2-hydroxy-1-[3-(1,1,2,2-tetrafluoroethoxy)benzyl]ethyl]-3,4-dihydro-2H-1,5-benzodioxepine-6-carboxamide], the melting point was 147 to 148 °C. `CCOC(=O)N[C@H](Cc1cccc(OC(F)(F)C(F)F)c1)[C@@H](O)c1ccc(F)cc1` (racemic) [Example 129, ethyl N-[(1RS,2SR)-2-(4-fluorophenyl)-2-hydroxy-1-[3-(1,1,2,2-tetrafluoroethoxy)benzyl]ethyl]carbamate] gave a melting point of 113 to 114 °C. `CC(C)(C)OC(=O)N[C@H](Cc1cccc(OC(F)(F)C(F)F)c1)[C@@H](O)c1ccc(F)cc1` (racemic) [Example 130, tert-butyl N-[(1RS,2SR)-2-(4-fluorophenyl)-2-hydroxy-1-[3-(1,1,2,2-tetrafluoroethoxy)benzyl]ethyl]carbamate] showed a melting point of 145 to 146 °C. In the case of `O=C(N[C@H](Cc1ccc(OC(F)(F)C(F)F)cc1)[C@@H](O)c1ccc(F)cc1)c1ccc(F)c2ccccc12` (racemic) [Example 131, 4-fluoro-N-[(1RS,2SR)-2-(4-fluorophenyl)-2-hydroxy-1-[4-(1,1,2,2-tetrafluoroethoxy)benzyl]ethyl]naphthalene-1-carboxamide], the melting point was 192 to 193 °C. `O=C(N[C@H](Cc1cccc(OC(F)(F)F)c1)[C@@H](O)c1ccc(F)cc1)c1ccc(F)c2ccccc12` (racemic) [Example 132, 4-fluoro-N-[(1RS,2SR)-2-(4-fluorophenyl)-2-hydroxy-1-[3-(trifluoromethoxy)benzyl]ethyl]naphthalene-1-carboxamide] showed a melting point of 189 to 190 °C. For `O=C(N[C@H](Cc1cccc(OC(F)(F)F)c1)[C@@H](O)c1ccc(F)cc1)c1cccc2c1C=CCCC2` (racemic) [Example 133, N-[(1RS,2SR)-2-(4-fluorophenyl)-2-hydroxy-1-[3-(trifluoromethoxy)benzyl]ethyl]-6,7-dihydro-5H-benzo[a]cycloheptene-1-carboxamide], the melting point was 177 to 178 °C. Work on `O=C(N[C@H](Cc1ccc(OC(F)(F)F)cc1)[C@@H](O)c1ccc(F)cc1)c1ccc(F)c2ccccc12` (racemic) [Example 134, 4-fluoro-N-[(1RS,2SR)-2-(4-fluorophenyl)-2-hydroxy-1-[4-(trifluoromethoxy)benzyl]ethyl]naphthalene-1-carboxamide] yielded a melting point of 230 to 231 °C. With `O=C(N[C@H](Cc1ccc(OC(F)(F)F)cc1)[C@@H](O)c1ccc(F)cc1)c1cccc2c1C=CCCC2` (racemic) [Example 135, N-[(1RS,2SR)-2-(4-fluorophenyl)-2-hydroxy-1-[4-(trifluoromethoxy)benzyl]ethyl]-6,7-dihydro-5H-benzo[a]cycloheptene-1-carboxamide] the melting point was 202 to 203 °C. Compound `O=C(N[C@H](Cc1cccc(C(F)(F)F)c1)[C@@H](O)c1ccc(F)cc1)c1cccc2ccccc12` (racemic) [Example 136, N-((1RS,2SR)-2-(4-fluorophenyl)-2-hydroxy-1-((3-(trifluoromethyl)phenyl)methyl)ethyl)-1-naphthalenecarboxamide] has a melting point of 158 to 159 °C. Compound `O=C(N[C@H](Cc1cccc(C(F)(F)F)c1)[C@@H](O)c1ccc(F)cc1)c1ccc(F)c2ccccc12` (racemic) [Example 137, 4-fluoro-N-((1RS,2SR)-2-(4-fluorophenyl)-2-hydroxy-1-((3-(trifluoromethyl)phenyl)methyl)ethyl)-1-naphthalenecarboxamide] has a melting point of 193 to 194 °C. `O=C(N[C@H](Cc1cccc(C(F)(F)F)c1)[C@@H](O)c1ccc(F)cc1)C1CCCCC1` (racemic) [Example 138, N-((1RS,2SR)-2-(4-fluorophenyl)-2-hydroxy-1-((3-(trifluoromethyl)phenyl)methyl)ethyl)cyclohexanecarboxamide] gave a melting point of 190 to 191 °C. With `O=C(CCCc1ccccc1)N[C@H](Cc1cccc(C(F)(F)F)c1)[C@@H](O)c1ccc(F)cc1` (racemic) [Example 139, N-((1RS,2SR)-2-(4-fluorophenyl)-2-hydroxy-1-((3-(trifluoromethyl)phenyl)methyl)ethyl)-4-phenylbutyramide] the melting point was 110 to 111 °C. For `O=C(N[C@H](Cc1ccccc1C(F)(F)F)[C@@H](O)c1ccc(F)cc1)c1cccc2ccccc12` (racemic) [Example 140, N-((1RS,2SR)-2-(4-fluorophenyl)-2-hydroxy-1-((2-(trifluoromethyl)phenyl)methyl)ethyl)-1-naphthalenecarboxamide], the melting point was 193 to 194 °C. For `O=C(N[C@H](Cc1ccccc1C(F)(F)F)[C@@H](O)c1ccc(F)cc1)c1ccc(F)c2ccccc12` (racemic) [Example 141, 4-fluoro-N-((1RS,2SR)-2-(4-fluorophenyl)-2-hydroxy-1-((2-(trifluoromethyl)phenyl)methyl)ethyl)-1-naphthalenecarboxamide], the melting point was 200 to 201 °C. For `O=C(N[C@H](Cc1ccccc1C(F)(F)F)[C@@H](O)c1ccc(F)cc1)C1CCCCC1` (racemic) [Example 142, N-((1RS,2SR)-2-(4-fluorophenyl)-2-hydroxy-1-((2-(trifluoromethyl)phenyl)methyl)ethyl)cyclohexanecarboxamide], the melting point was 216 to 217 °C. Work on `O=C(CCCc1ccccc1)N[C@H](Cc1ccccc1C(F)(F)F)[C@@H](O)c1ccc(F)cc1` (racemic) [Example 143, N-((1RS,2SR)-2-(4-fluorophenyl)-2-hydroxy-1-((2-(trifluoromethyl)phenyl)methyl)ethyl)-4-phenylbutyramide] yielded a melting point of 161 to 162 °C. With `O=C(N[C@H](Cc1ccc(F)cc1)[C@@H](O)c1ccc(F)cc1)c1cccc2ccccc12` (racemic) [Example 144, N-((1RS,2SR)-2-(4-fluorophenyl)-1-((4-fluorophenyl)methyl)-2-hydroxyethyl)-1-naphthalenecarboxamide] the melting point was 199 to 200 °C. `O=C(N[C@H](Cc1ccc(F)cc1)[C@@H](O)c1ccc(F)cc1)C1CCCCC1` (racemic) [Example 146, N-((1RS,2SR)-2-(4-fluorophenyl)-1-((4-fluorophenyl)methyl)-2-hydroxyethyl)cyclohexanecarboxamide] showed a melting point of 203 to 204 °C.
